The record followed here is patent US20260027101A1, “BACTERIAL TOPOISOMERASE INHIBITORS” (priority 2022, published 2026).

In brackets after ≈: the same amount, converted by molar mass.

Assay in all cases: microbe, parasite or virus in culture
Format in all cases: cell-based

Test [1] deals with Staphylococcus aureus M121K (29213-derived strain, GyrA substitution). The settings on record: read-out: MIC against Staphylococcus aureus M121K. On the procedure:
(§1) Minimum inhibitory concentrations (MICs) were determined in triplicate according to Clinical and Laboratory Standards Institute (CLSI) guidelines using one or more strains of S. aureus or selected Gram-negative bacteria. […] Compounds were also assayed using a USA300 (Hidron, A. I., et al., Emergence of Community-Acquired Meticillin-Resistant Staphylococcus aureus Strain USA300 as a Cause of Necrotising Community-Onset Pneumonia. Lancet Infect. Dis. 2009, 9. 384-392) isolate of MRSA as well as a S. aureus strain isolated from a cystic fibrosis patient.

In test [2] the test system is Staphylococcus aureus D83N (29213-derived strain, GyrA substitution). The settings on record: read-out: MIC against Staphylococcus aureus D83N. As for the experimental part: as §1
Test [3] has as its system Salmonella enterica 14028 ΔtolC (efflux-deficient strain). As to conditions: Salmonella enterica, read-out: MIC against Salmonella enterica 14028 ΔtolC. As for the experimental part:
as §1

For the compound `COc1ccc2ncc(F)c(CCN3CCC(C(N)Cc4ccc5c(c4)OCCO5)CC3)c2n1` (stereo not drawn) [Example 29, 2-(2,3-dihydrobenzo[b][1,4]dioxin-6-yl)-1-(1-(2-(3-fluoro-6-methoxy-1,5-naphthyridin-4-yl)ethyl)piperidin-4-yl)ethan-1-amine], the MIC in test [1] and in test [2] was over 16 mg/L in each case. Consider `COc1ccc2ncc(F)c(CCN3CCC([C@@H](O)[C@H](O)c4ccc5c(c4)NC(=O)CO5)CC3)c2n1` [Example 6, 6-((1R,2R)-2-(1-(2-(3-fluoro-6-methoxy-1,5-naphthyridin-4-yl)ethyl)piperidin-4-yl)-1,2-dihydroxyethyl)-2H-benzo[b][1,4]oxazin-3(4H)-one], for which the MIC in test [1] and in test [2] was over 32 mg/L each time. As to `COc1ccc2ncc(F)c(CCN3CCC(C(N)Cc4ccc(C)cc4)CC3)c2n1` (stereo not drawn) [Example 28, 1-(1-(2-(3-fluoro-6-methoxy-1,5-naphthyridin-4-yl)ethyl)piperidin-4-yl)-2-(p-tolyl)ethan-1-amine], the MIC was over 32 mg/L in test [1] and 32 mg/L (≈ 75.7 µM) in test [2]. Take `COc1ccc2ncc(F)c(CCN3CCC(C(N)Cc4ccc5c(c4)NC(=O)CO5)CC3)c2n1` (stereo not drawn) [Example 30, 6-(2-amino-2-(1-(2-(3-fluoro-6-methoxy-1,5-naphthyridin-4-yl)ethyl)piperidin-4-yl)ethyl)-2H-benzo[b][1,4]oxazin-3(4H)-one]: the MIC in test [1] is over 64 mg/L. The same measure, in the same setting: the same measure for `COc1ccc2ncc(F)c(CCN3CCC(CCc4ccc5c(c4)NC(=O)CO5)CC3)c2n1` [Example 21, 6-(2-(1-(2-(3-fluoro-6-methoxy-1,5-naphthyridin-4-yl)ethyl)piperidin-4-yl)ethyl)-2H-benzo[b][1,4]oxazin-3(4H)-one]: 64 mg/L (≈ 138 µM).

In the case of `COc1ccc2ncc(F)c(CCN3CCC(C(O)Cc4ccc5c(c4)OCCO5)CC3)c2n1` (stereo not drawn) [Example 26, 2-(2,3-dihydrobenzo[b][1,4]dioxin-6-yl)-1-(1-(2-(3-fluoro-6-methoxy-1,5-naphthyridin-4-yl)ethyl)piperidin-4-yl)ethan-1-ol], the MIC in test [1] and in test [2] was 4 mg/L (≈ 8.56 µM) throughout. In the case of `COc1ccc2ncc(F)c(CCN3CCC([C@@H](O)[C@H](O)c4ccc(C)cc4)CC3)c2n1` [Example 4, (1R,2R)-1-(1-(2-(3-fluoro-6-methoxy-1,5-naphthyridin-4-yl)ethyl)piperidin-4-yl)-2-(p-tolyl)ethane-1,2-diol], in test [3], the MIC lay in the range of 0.5 to 1 mg/L (≈ 1.14 to 2.28 µM).

As to `COc1ccc2ncc(F)c(CCN3CCC([C@H](O)[C@@H](O)c4ccc(C)cc4)CC3)c2n1` [Example 7, (1S,2S)-1-(1-(2-(3-fluoro-6-methoxy-1,5-naphthyridin-4-yl)ethyl)piperidin-4-yl)-2-(p-tolyl)ethane-1,2-diol], the MIC in test [1] and in test [2] was over 32 mg/L in each case. With `COc1ccc2ncc(F)c(CCN3CCC(C(O)C(O)c4ccc(C)cc4)CC3)c2n1` (single isomer, unassigned) [Example 13, 1-(1-(2-(3-fluoro-6-methoxy-1,5-naphthyridin-4-yl)ethyl)piperidin-4-yl)-2-(p-tolyl)ethane-1,2-diol], the MIC in test [2] was over 32 mg/L. Turning to `COc1ccc2ncc(F)c(CCN3CCC(C(O)C(O)c4ccc(C)cc4)CC3)c2n1` (single isomer, unassigned) [Example 16, 1-(1-(2-(3-fluoro-6-methoxy-1,5-naphthyridin-4-yl)ethyl)piperidin-4-yl)-2-(p-tolyl)ethane-1,2-diol], the MIC in test [1] amounted to 4 mg/L (≈ 9.1 µM).

On to `COc1ccc2ncc(F)c(CCN3CCC([C@@H](O)[C@H](O)c4ccc5c(c4)OCCO5)CC3)c2n1` [Example 5, (1R,2R)-1-(2,3-dihydrobenzo[b][1,4]dioxin-6-yl)-2-(1-(2-(3-fluoro-6-methoxy-1,5-naphthyridin-4-yl)ethyl)piperidin-4-yl)ethane-1,2-diol], for which the MIC in test [3] was determined as 0.5 mg/L (≈ 1.03 µM). Consider `COc1ccc2ncc(F)c(CCN3CCC(CCc4ccc(C)cc4)CC3)c2n1` [Example 19, 7-fluoro-2-methoxy-8-(2-(4-(4-methylphenethyl)piperidin-1-yl)ethyl)-1,5-naphthyridine], for which the MIC in test [1] is over 16 mg/L; in test [2], 4 mg/L (≈ 9.82 µM).
